According to patent publication US20090227617A1, “Esters Of Glucuronide Prodrugs Of Anthracyclines And Method Of Preparation And Use In Tumor-Selective Chemotherapy” (Pharmachemie B.V., priority 2008, published 2009):
Like-named read-outs stand apart in the source and are kept apart here.

Key:
[1] = test system: carboxyl esterases; conditions: mouse plasma; cited from earlier work
[2] = test system: carboxyl esterases; conditions: human plasma; cited from earlier work
[3] = Solubility in water; format: physicochemical
Protocol: For DOX-triazol ester 1 (DOX-mPEG4GA3) about 0.6 mg prodrug dissolve in 1 ml of water whereas for DOX-mPEG7GA3 already 2.5 mg dissolve in 1 ml of water and for DOX-mPEG12GA3 this has reached more than 15 mg in 1 ml of water.

[4] = has to be administered in a vehicle containing Cremophore EL; cited from earlier work
[5] = Hydrolysis of prodrug esters in phosphate buffer pH 7.33, followed by reverse phase TLC; format: physicochemical; conditions: phosphate buffer pH=7.33, room temperature
Text: hydrolyze faster than alkyl esters like DOX-mGA3 due to the better leaving ability of the ester group of 1. This is caused by the electron-withdrawing properties of the triazol functionality. Indeed in a phosphate buffer with pH=7.33 it took 24 hrs at room temperature before DOX-mGA3 was completely hydrolyzed. The DOX derivatives of 1 with n=7 or 12 and x=1 (DOX-mPEG7GA3 and DOX-mPEG12GA3) were, nevertheless, already hydrolyzed within 4 hrs under these circumstances.
The hydrolysis of the DOX esters were qualitatively followed with reverse phase TLC (RP18). With eluens acetonitril/water: 42/58 in a phosphate buffer (KH2PO4/Na2HPO4) of pH=7.33.
DOX-mGA3 0.29 mg was dissolved in 1 ml of buffer together with some drops of DMSO to keep the DOX-mGA3 dissolved. It took 24 hrs before the starting compound had disappeared.
In the same way the hydrolysis of DOX-triazol esters 1 (n=, 7 and 12, x=1) were followed for 0.35 mg/ml and 0.45 mg/ml buffer. Both esters were completely hydrolyzed within 4 hrs.

[6] = cited from earlier work
[7] = test system: OVCAR-3 cells; test: In vitro antiproliferative effects in OVCAR-3 cells (crystal violet assay), with or without bovine beta-glucuronidase (GUS); format: cell-based, human; conditions: for IC50: 3 days incubation; for toxicity compared with doxorubicin: in the presence of GUS
Protocol: The toxicity of the prodrugs was tested with OVCAR-3 cells. The cells were incubated for 3 days with the different prodrugs DOX-alGA3, DOX-mPEG4-GA3, DOX-mPEG7-GA3, and for comparison also with Doxorubicin, in fetal bovine serum (FBS), in the presence or absence of bovine beta-glucuronidase (GUS).
The concentrations used for the prodrugs ranged from 0.001 μM to 50 μM.
In vitro antiproliferative effects in OVCAR-3 cells after 3 days of incubation with the different (pro)-drugs DOX, DOX-alGA3, DOX-mPEG4-GA3 and DOX-mPEG7-GA3 in the presence or absence of bovine beta-glucuronidase(GUS).
The concentrations used for the prodrugs ranged from 0.001 μM to 50 μM, the GUS enzyme was added to give a final concentration of 10 units/μl. Adjacent to this, cells treated with the prodrugs were incubated without GUS. Incubation was conducted at 37° C. in a humidified, 5% CO2 incubator of three days. Cell growth is measured by crystal violet assay, untreated cells are set at 100%. The IC50 values found in these experiments are depicted in the table beneath.
The human ovarian cancer (OVCAR3) cell line was maintained in DMEM supplemented with 10% heat inactivated FBS and 1% P/S. Inhibition of proliferation of the OVCAR cell line by the doxorubicin prodrugs Dox-allyl, Dox-mGA3, Dox-mPEG4 and Dox-mPEG7 was determined using a crystal violet assay. The assay was preformed in a 96-wells plate. Cells that were harvested by trypsinisation were seeded with 5.000 cells in 100 μl medium per well. The 96-wells plate was incubated overnight at 37° C. in a humidified, 5% CO2 incubator. The different prodrugs were added in concentrations between 0.001 μM to 50 μM. Subsequently, the GUS enzyme was added to give a final concentration of 10 units/μl. This mixture was incubated at 37° C. in a humidified, 5% CO2 incubator for tree days. Subsequently, the cells were stained and fixed with 50 μl 1% crystal violet in 70% ethanol. The cells were washed with water and resolubilized in 100 μl 1% SDS. After this the absorbance was read at 550 nm. The blank extinction values were determined on wells in which no cells were seeded were subtracted from the signals. Inhibition concentrations 50% (IC50) were derived by plotting the inhibition of cell proliferation at different concentrations of the prodrug and non-linear curve fitting.

[8] = test system: tumor bearing mice; conditions: based on 10% weight loss, i.v.; cited from earlier work
[9] = tumor bearing mice, half of the MTD; cited from earlier work
[10] = bovine beta-glucuronidase 10 units/μL, read-out: IC50 (M) with GUS (10 units/μL)
[11] = no GUS, read-out: IC50 (M) No GUS

Row | SMILES | solubility in water [3] | IC50 [7, 10] [M] | IC50 [7, 11] [M] | toxicity compared with doxorubicin [7] | further results
1 | COC(=O)C1OC(OC(=O)Nc2ccc(COC(=O)NC3CC(OC4CC(O)(C(=O)CO)Cc5c(O)c6c(c(O)c54)C(=O)c4c(OC)cccc4C6=O)OC(C)C3O)cc2)C(O)C(O)C1O (centres unmarked) [DOX-mGA3] | – | – | – | – | half time of conversion to DOX-GA3 [1]: approximately 05 min; half time of conversion to DOX-GA3 [2]: ~2.5 h; solubility in water (in words) [3]: completely insoluble in water; solubility in water (in words, background) [4]: very bad solubility in water; time until completely hydrolyzed [5]: 24 h; pharmacokinetics in mice (in words) [6]: improved pharmacokinetics
2 | COCCOCCOCCOCCOCCOCCOCCOCCOCCOCCOCCOCCn1cc(COC(=O)C2OC(OC(=O)Nc3ccc(COC(=O)NC4CC(OC5CC(O)(C(=O)CO)Cc6c(O)c7c(c(O)c65)C(=O)c5c(OC)cccc5C7=O)OC(C)C4O)cc3)C(O)C(O)C2O)nn1 (centres unmarked) [DOX-mPEG12GA3] | more than 15 mg in 1 ml of water | – | – | – | –
3 | COCCOCCOCCOCCn1cc(COC(=O)C2OC(OC(=O)Nc3ccc(COC(=O)NC4CC(OC5CC(O)(C(=O)CO)Cc6c(O)c7c(c(O)c65)C(=O)c5c(OC)cccc5C7=O)OC(C)C4O)cc3)C(O)C(O)C2O)nn1 (centres unmarked) [DOX-mPEG4-GA3] | about 0.6 mg in 1 ml of water | 6.21e-08 | 2.21e-05 | comparable toxicity as doxorubicin | –
4 | COc1cccc2c1C(=O)c1c(O)c3c(c(O)c1C2=O)C[C@@](O)(C(=O)CO)C[C@@H]3O[C@H]1C[C@H](N)[C@H](O)[C@H](C)O1 [DOX, doxorubicin, reference compound] | – | – | 6.19e-08 | – | maximum tolerated dose (MTD) [8]: 8 mg/kg
5 | COCCOCCOCCOCCOCCOCCOCCn1cc(COC(=O)C2OC(OC(=O)Nc3ccc(COC(=O)NC4CC(OC5CC(O)(C(=O)CO)Cc6c(O)c7c(c(O)c65)C(=O)c5c(OC)cccc5C7=O)OC(C)C4O)cc3)C(O)C(O)C2O)nn1 (centres unmarked) [DOX-mPEG7-GA3] | 2.5 mg in 1 ml of water | 7.74e-08 | 8.33e-06 | slightly less toxic | –
6 | C=CCOC(=O)C1OC(OC(=O)Nc2ccc(COC(=O)NC3CC(OC4CC(O)(C(=O)CO)Cc5c(O)c6c(c(O)c54)C(=O)c4c(OC)cccc4C6=O)OC(C)C3O)cc2)C(O)C(O)C1O (centres unmarked) [DOX-alGA3] | – | 5.84e-08 | 9.81e-06 | comparable toxicity as doxorubicin | –
7 | COc1cccc2c1C(=O)c1c(O)c3c(c(O)c1C2=O)CC(O)(C(=O)CO)CC3OC1CC(NC(=O)OCc2ccc(NC(=O)OC3OC(C(=O)O)C(O)C(O)C3O)cc2)C(O)C(C)O1 (centres unmarked) [DOX-GA3] | – | – | – | – | maximum tolerated dose (MTD) [8]: approximately 500 mg/kg; concentrations of doxorubicin in plasma versus administration of doxorubicin [9]: significantly lower concentrations of doxorubine in plasma; concentrations of doxorubicin in tumor tissue versus administration of doxorubicin [9]: higher
